According to article PMC9482650, “Quantitative fragmentomics allow affinity mapping of interactomes” (Nature Communications, 2022):
Ends that are not written are not given here.

How the values were obtained:
Assay type in all cases: binding
[1] = molecular target: PDZD7_3 PDZ (Homo sapiens, UniProt Q9H5P4); test: Holdup assay; details: composite holdup affinity; 0.00=below quantification threshold; read-out: COMP pKd (converted)
[2] = molecular target: DLG3_1 PDZ (Homo sapiens, UniProt Q92796); test: Holdup assay; details: composite holdup affinity; 0.00=below quantification threshold; read-out: COMP pKd (converted)
[3] = molecular target: PDZD2_4 PDZ (Homo sapiens, UniProt O15018); test: Holdup assay; details: sheet PPI_convert; read-out: affinity to PDZ PDZD2_4 (converted)
[4] = molecular target: DLG2_3 PDZ (Homo sapiens, UniProt Q15700); test: Holdup assay; details: composite holdup affinity; 0.00=below quantification threshold; read-out: COMP pKd (converted)
[5] = molecular target: SCRIB_1 PDZ (Homo sapiens, UniProt Q14160); test: Holdup assay; details: composite holdup affinity; 0.00=below quantification threshold; read-out: COMP pKd (converted)
[6] = molecular target: MAGI2_2 PDZ (Homo sapiens, UniProt Q86UL8); test: Holdup assay; details: composite holdup affinity; 0.00=below quantification threshold; read-out: COMP pKd (converted)
[7] = molecular target: PDZD2_2 PDZ (Homo sapiens, UniProt O15018); test: Holdup assay; details: composite holdup affinity; 0.00=below quantification threshold; read-out: COMP pKd (converted)
[8] = molecular target: SNTB1 PDZ (Homo sapiens, UniProt Q13884); test: Holdup assay; details: composite holdup affinity; 0.00=below quantification threshold; read-out: COMP pKd (converted)
[9] = molecular target: SCRIB_3 PDZ (Homo sapiens, UniProt Q14160); test: Holdup assay; details: composite holdup affinity; 0.00=below quantification threshold; read-out: COMP pKd (converted)
[10] = molecular target: MAGI1_2 PDZ (Homo sapiens, UniProt Q96QZ7); test: biochemical; details: composite holdup affinity; 0.00=below quantification threshold; read-out: COMP pKd (converted)
[11] = molecular target: MAGI2_5 PDZ (Homo sapiens, UniProt Q86UL8); test: Holdup assay; details: composite holdup affinity; 0.00=below quantification threshold; read-out: COMP pKd (converted)
[12] = molecular target: APBA1_2 PDZ (Homo sapiens, UniProt Q02410); test: Holdup assay; details: composite holdup affinity; 0.00=below quantification threshold; read-out: COMP pKd (converted)
[13] = molecular target: RHPN1 PDZ (Homo sapiens, UniProt Q8TCX5); test: Holdup assay; details: composite holdup affinity; 0.00=below quantification threshold; read-out: COMP pKd (converted)
[14] = molecular target: PDZRN3_1 PDZ (Homo sapiens, UniProt Q9UPQ7); test: Holdup assay; details: composite holdup affinity; 0.00=below quantification threshold; read-out: COMP pKd (converted)
[15] = molecular target: GOPC PDZ (Homo sapiens, UniProt Q9HD26); test: Holdup assay; details: composite holdup affinity; 0.00=below quantification threshold; read-out: COMP pKd (converted)
[16] = molecular target: DLG3_2 PDZ (Homo sapiens, UniProt Q92796); test: Holdup assay; details: composite holdup affinity; 0.00=below quantification threshold; read-out: COMP pKd (converted)
[17] = molecular target: GRIP1_2 PDZ (Homo sapiens, UniProt Q9Y3R0); test: Holdup assay; details: composite holdup affinity; 0.00=below quantification threshold; read-out: COMP pKd (converted)
[18] = molecular target: ARHGEF12 PDZ (Homo sapiens, UniProt Q9NZN5); test: Holdup assay; details: composite holdup affinity; 0.00=below quantification threshold; read-out: COMP pKd (converted)
[19] = molecular target: MAGI3_2 PDZ (Homo sapiens, UniProt Q5TCQ9); test: Holdup assay; details: composite holdup affinity; 0.00=below quantification threshold; read-out: COMP pKd (converted)
[20] = molecular target: DLG3_3 PDZ (Homo sapiens, UniProt Q92796); test: Holdup assay; details: composite holdup affinity; 0.00=below quantification threshold; read-out: COMP pKd (converted)
[21] = molecular target: MAGI2_3 PDZ (Homo sapiens, UniProt Q86UL8); test: Holdup assay; details: composite holdup affinity; 0.00=below quantification threshold; read-out: COMP pKd (converted)
[22] = molecular target: MPP1 PDZ (Homo sapiens, UniProt Q00013); test: Holdup assay; details: sheet PPI_convert; read-out: affinity to PDZ MPP1 (converted)
[23] = molecular target: DFNB31_1 PDZ (Homo sapiens, UniProt Q9P202); test: Holdup assay; details: composite holdup affinity; 0.00=below quantification threshold; read-out: COMP pKd (converted)
[24] = molecular target: SNX27 PDZ (Homo sapiens, UniProt Q96L92); test: Holdup assay; details: composite holdup affinity; 0.00=below quantification threshold; read-out: COMP pKd (converted)
[25] = molecular target: MAGI2_4 PDZ (Homo sapiens, UniProt Q86UL8); test: Holdup assay; details: composite holdup affinity; 0.00=below quantification threshold; read-out: COMP pKd (converted)
[26] = molecular target: SNTG2 PDZ (Homo sapiens, UniProt Q9NY99); test: Holdup assay; details: composite holdup affinity; 0.00=below quantification threshold; read-out: COMP pKd (converted)
[27] = molecular target: SNTA1 PDZ (Homo sapiens, UniProt Q13424); test: Holdup assay; details: composite holdup affinity; 0.00=below quantification threshold; read-out: COMP pKd (converted)
[28] = molecular target: NOS1 PDZ (Homo sapiens, UniProt P29475); test: Holdup assay; details: composite holdup affinity; 0.00=below quantification threshold; read-out: COMP pKd (converted)
[29] = molecular target: T1, SCRIB2 PDZ (Homo sapiens, UniProt Q14160); test: Holdup assay; details: composite holdup affinity; 0.00=below quantification threshold; read-out: COMP pKd (converted)
T1 sequence (Q14160 862-950 limits assumed): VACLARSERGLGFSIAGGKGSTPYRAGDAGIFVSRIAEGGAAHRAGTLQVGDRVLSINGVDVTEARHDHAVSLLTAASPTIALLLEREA

[30] = molecular target: DLG4_1 PDZ (Homo sapiens, UniProt P78352); test: Holdup assay; details: composite holdup affinity; 0.00=below quantification threshold; read-out: COMP pKd (converted)
[31] = molecular target: SNTG1 PDZ (Homo sapiens, UniProt Q9NSN8); test: Holdup assay; details: composite holdup affinity; 0.00=below quantification threshold; read-out: COMP pKd (converted)
[32] = molecular target: DLG2_2 PDZ (Homo sapiens, UniProt Q15700); test: Holdup assay; details: composite holdup affinity; 0.00=below quantification threshold; read-out: COMP pKd (converted)
[33] = molecular target: LNX2_2 PDZ (Homo sapiens, UniProt Q8N448); test: Holdup assay; details: composite holdup affinity; 0.00=below quantification threshold; read-out: COMP pKd (converted)
[34] = molecular target: T2, MAST2 PDZ (Homo sapiens, UniProt Q6P0Q8); test: biochemical; details: composite holdup affinity; 0.00=below quantification threshold; read-out: COMP pKd (converted)
T2 sequence (Q6P0Q8 1104-1192 limits assumed): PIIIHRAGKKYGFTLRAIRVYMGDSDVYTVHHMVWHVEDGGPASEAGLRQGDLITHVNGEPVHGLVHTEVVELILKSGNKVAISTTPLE

[35] = molecular target: GIPC1 PDZ (Homo sapiens, UniProt O14908); test: Holdup assay; details: sheet PPI_convert; read-out: affinity to PDZ GIPC1 (converted)
Text: Supplement 41467_2022_33018_MOESM4_ESM.xlsx, sheet "PPI_convert" | column: GIPC1

[36] = molecular target: DLG4_2 PDZ (Homo sapiens, UniProt P78352); test: Holdup assay; details: composite holdup affinity; 0.00=below quantification threshold; read-out: COMP pKd (converted)
[37] = molecular target: PDZRN4_1 PDZ (Homo sapiens, UniProt Q6ZMN7); test: Holdup assay; details: composite holdup affinity; 0.00=below quantification threshold; read-out: COMP pKd (converted)
PDZRN4_1 PDZ, sequence (Q6ZMN7 224-314 limits assumed): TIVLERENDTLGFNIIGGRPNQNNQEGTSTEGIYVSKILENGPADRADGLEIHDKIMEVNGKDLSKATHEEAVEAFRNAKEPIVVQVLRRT

SCRIB_1 PDZ, sequence (Q14160 728-815 limits assumed): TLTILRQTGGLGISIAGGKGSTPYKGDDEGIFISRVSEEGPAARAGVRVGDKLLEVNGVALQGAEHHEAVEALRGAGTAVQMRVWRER
SNTB1 PDZ, sequence (Q13884 112-195 limits assumed): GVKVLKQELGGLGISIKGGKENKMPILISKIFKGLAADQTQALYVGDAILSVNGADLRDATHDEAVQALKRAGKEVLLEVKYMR
SNTG1 PDZ, sequence (Q9NSN8 57-140 limits assumed): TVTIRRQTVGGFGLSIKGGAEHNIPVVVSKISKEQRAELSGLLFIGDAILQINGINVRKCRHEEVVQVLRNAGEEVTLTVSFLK
PDZD7_3 PDZ, sequence (Q9H5P4 862-934 limits assumed): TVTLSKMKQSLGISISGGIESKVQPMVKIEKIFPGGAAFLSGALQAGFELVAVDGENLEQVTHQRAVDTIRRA
APBA1_2 PDZ, sequence (Q02410 747-822 limits assumed): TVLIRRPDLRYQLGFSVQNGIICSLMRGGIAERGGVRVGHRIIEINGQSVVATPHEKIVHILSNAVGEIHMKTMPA
NOS1 PDZ, sequence (P29475 17-99 limits assumed): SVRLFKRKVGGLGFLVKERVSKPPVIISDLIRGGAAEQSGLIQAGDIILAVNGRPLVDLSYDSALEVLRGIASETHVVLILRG
MAGI2_3 PDZ, sequence (Q86UL8 605-683 limits assumed): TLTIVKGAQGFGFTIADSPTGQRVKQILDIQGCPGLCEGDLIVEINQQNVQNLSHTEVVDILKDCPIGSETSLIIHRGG
MAGI1_2 PDZ, sequence (Q96QZ7 472-554 limits assumed): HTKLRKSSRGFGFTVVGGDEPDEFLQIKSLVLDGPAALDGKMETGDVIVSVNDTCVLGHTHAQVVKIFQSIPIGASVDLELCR
MAGI3_2 PDZ, sequence (Q5TCQ9 410-492 limits assumed): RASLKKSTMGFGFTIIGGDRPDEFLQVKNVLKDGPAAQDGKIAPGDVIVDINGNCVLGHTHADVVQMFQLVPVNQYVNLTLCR
SNTA1 PDZ, sequence (Q13424 87-170 limits assumed): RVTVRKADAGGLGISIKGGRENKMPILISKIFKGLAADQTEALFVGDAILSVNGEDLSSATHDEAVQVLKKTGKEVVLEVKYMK
DLG2_3 PDZ, sequence (Q15700 421-501 limits assumed): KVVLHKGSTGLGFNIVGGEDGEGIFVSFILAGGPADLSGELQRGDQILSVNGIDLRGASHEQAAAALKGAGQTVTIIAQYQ
SNTG2 PDZ, sequence (Q9NY99 73-156 limits assumed): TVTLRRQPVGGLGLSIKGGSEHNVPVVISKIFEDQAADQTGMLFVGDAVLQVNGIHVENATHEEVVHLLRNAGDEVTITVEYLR
GIPC1 PDZ, sequence (O14908 133-213 limits assumed): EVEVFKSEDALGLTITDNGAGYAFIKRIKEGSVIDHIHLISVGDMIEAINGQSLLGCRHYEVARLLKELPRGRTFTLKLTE
PDZD2_2 PDZ, sequence (O15018 334-419 limits assumed): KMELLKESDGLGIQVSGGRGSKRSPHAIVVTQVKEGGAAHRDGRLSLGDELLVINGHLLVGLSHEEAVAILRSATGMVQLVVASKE
LNX2_2 PDZ, sequence (Q8N448 339-422 limits assumed): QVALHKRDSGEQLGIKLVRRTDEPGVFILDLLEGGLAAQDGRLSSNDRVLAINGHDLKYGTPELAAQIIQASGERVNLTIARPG
MPP1 PDZ, sequence (Q00013 71-152 limits assumed): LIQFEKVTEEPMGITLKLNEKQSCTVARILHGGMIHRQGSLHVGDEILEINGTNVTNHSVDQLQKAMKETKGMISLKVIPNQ
MAGI2_4 PDZ, sequence (Q86UL8 778-860 limits assumed): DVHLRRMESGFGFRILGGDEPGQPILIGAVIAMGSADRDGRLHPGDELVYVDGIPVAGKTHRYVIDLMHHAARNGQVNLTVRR
PDZRN3_1 PDZ, sequence (Q9UPQ7 249-339 limits assumed): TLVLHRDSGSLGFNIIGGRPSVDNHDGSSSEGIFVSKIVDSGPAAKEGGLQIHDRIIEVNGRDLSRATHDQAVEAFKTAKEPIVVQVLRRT
DFNB31_1 PDZ, sequence (Q9P202 140-223 limits assumed): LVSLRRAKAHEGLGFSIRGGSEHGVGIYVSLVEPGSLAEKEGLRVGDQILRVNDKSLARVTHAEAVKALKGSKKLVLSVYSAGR
ARHGEF12 PDZ, sequence (Q9NZN5 72-151 limits assumed): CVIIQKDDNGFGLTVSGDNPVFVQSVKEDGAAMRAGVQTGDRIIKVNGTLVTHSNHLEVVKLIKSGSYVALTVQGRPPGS
PDZD2_4 PDZ, sequence (O15018 728-813 limits assumed): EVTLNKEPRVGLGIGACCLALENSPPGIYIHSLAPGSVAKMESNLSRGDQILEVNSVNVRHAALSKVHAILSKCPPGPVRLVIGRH
SCRIB_3 PDZ, sequence (Q14160 1004-1093 limits assumed): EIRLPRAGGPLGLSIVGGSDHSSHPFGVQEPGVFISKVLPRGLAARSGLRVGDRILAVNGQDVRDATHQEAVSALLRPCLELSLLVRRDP
DLG3_2 PDZ, sequence (Q92796 226-311 limits assumed): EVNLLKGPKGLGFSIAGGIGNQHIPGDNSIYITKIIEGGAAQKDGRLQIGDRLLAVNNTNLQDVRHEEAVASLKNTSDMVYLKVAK
GRIP1_2 PDZ, sequence (Q9Y3R0 150-238 limits assumed): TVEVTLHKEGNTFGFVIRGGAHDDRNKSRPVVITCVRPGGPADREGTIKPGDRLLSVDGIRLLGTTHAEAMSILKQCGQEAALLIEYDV
MAGI2_2 PDZ, sequence (Q86UL8 426-510 limits assumed): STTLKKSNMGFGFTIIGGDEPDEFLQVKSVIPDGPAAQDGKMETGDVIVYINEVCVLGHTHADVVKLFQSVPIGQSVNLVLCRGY
DLG3_1 PDZ, sequence (Q92796 130-217 limits assumed): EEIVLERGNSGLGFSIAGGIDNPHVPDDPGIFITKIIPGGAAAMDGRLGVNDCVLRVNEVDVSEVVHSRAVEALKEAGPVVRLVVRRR
DLG4_1 PDZ, sequence (P78352 65-151): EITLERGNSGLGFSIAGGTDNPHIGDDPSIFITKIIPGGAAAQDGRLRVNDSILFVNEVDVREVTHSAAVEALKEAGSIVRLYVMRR
MAGI2_5 PDZ, sequence (Q86UL8 920-1010 limits assumed): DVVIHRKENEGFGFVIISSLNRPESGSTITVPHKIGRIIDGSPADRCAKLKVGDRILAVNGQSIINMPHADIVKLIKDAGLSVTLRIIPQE
DLG2_2 PDZ, sequence (Q15700 193-279 limits assumed): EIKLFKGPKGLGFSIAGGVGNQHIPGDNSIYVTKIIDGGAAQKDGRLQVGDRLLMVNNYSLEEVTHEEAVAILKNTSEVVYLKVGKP
DLG4_2 PDZ, sequence (P78352 160-246 limits assumed): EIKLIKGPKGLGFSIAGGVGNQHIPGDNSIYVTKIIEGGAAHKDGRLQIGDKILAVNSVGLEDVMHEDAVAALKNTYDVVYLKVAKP
DLG3_3 PDZ, sequence (Q92796 379-465 limits assumed): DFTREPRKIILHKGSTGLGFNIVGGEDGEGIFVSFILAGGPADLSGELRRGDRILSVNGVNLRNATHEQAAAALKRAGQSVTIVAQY
RHPN1 PDZ, sequence (Q8TCX5 513-592 limits assumed): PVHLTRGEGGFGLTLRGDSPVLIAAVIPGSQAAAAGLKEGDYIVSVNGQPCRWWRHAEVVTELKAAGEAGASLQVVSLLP

Sequence	Kd [1]	Kd [2]	Kd [3]	Kd [4]	Kd [5]	Kd [6]	Kd [7]	Kd [8]	Kd [9]	Kd [10]	Kd [11]	Kd [12]	Kd [13]	Kd [14]	Kd [15]	Kd [16]	Kd [17]	Kd [18]	Kd [19]	Kd [20]	further results
RHTTSTETAV [HPV30-E6]	79.4 µM	35.5 µM	16.6 µM	16.2 µM	17.4 µM	9.12 µM	38 µM	7.94 µM	9.55 µM	40.7 µM	49 µM	58.9 µM	83.2 µM	20.9 µM	72.4 µM	3.89 µM	166 µM	63.1 µM	4.37 µM	21.9 µM	Kd [21]: 26.9 µM; Kd [22]: 6.76 µM; Kd [23]: 53.7 µM; Kd [24]: 2.29 µM; Kd [25]: 85.1 µM; Kd [26]: 21.4 µM; Kd [27]: 19.1 µM; Kd [28]: 23.4 µM; Kd [29]: 7.76 µM; Kd [30]: 12 µM; Kd [31]: 11.5 µM; Kd [32]: 6.46 µM; Kd [33]: 170 µM; Kd [34]: 3.02 µM; Kd [35]: 20 µM; Kd [36]: 3.55 µM; Kd [37]: 29.5 µM
RTRQRNETQV [HPV51-E6]	132 µM	52.5 µM	45.7 µM	17.8 µM	27.5 µM	0.219 µM	263 µM	81.3 µM	67.6 µM	1.17 µM	75.9 µM	275 µM	200 µM	87.1 µM	191 µM	7.94 µM	347 µM	186 µM	1.48 µM	12.3 µM	Kd [21]: 95.5 µM; Kd [22]: 1.55 µM; Kd [23]: 339 µM; Kd [24]: 14.1 µM; Kd [25]: 39.8 µM; Kd [26]: 60.3 µM; Kd [27]: 58.9 µM; Kd [28]: 123 µM; Kd [29]: 40.7 µM; Kd [30]: 12.6 µM; Kd [31]: 105 µM; Kd [32]: 10.7 µM; Kd [33]: 245 µM; Kd [34]: 5.37 µM; Kd [35]: 7.94 µM; Kd [36]: 10.2 µM; Kd [37]: 69.2 µM
